In ChEMBL document CHEMBL4041546, “Synthesis and antimicrobial studies of novel derivatives of 4-(4-formyl-3-phenyl-1H-pyrazol-1-yl)benzoic acid as potent anti-Acinetobacter baumannii agents” (Bioorg Med Chem Lett, 2017):
In brackets after ≈: the same amount, converted by molar mass. Activity calls are given as the source filed them. The rule behind the calls is not given here.

Key:
Bacillus subtilis = assay: Antibacterial activity against Bacillus subtilis by disk diffusion assay; type: functional
Staphylococcus aureus [1] = assay: Antibacterial activity against methicillin-resistant Staphylococcus aureus ATCC 43300 by disk diffusion assay; type: functional
Staphylococcus aureus [2] = assay: Antibacterial activity against methicillin-resistant Staphylococcus aureus ATCC 43300; type: functional
[3] = Cytotoxicity against HEK293 cells; type: cell-based; details: human
Acinetobacter baumannii [4] = assay: Antibacterial activity against Acinetobacter baumannii ATCC 19606 by disk diffusion assay; type: functional
Escherichia coli = assay: Antibacterial activity against Escherichia coli by disk diffusion assay; type: functional
Acinetobacter baumannii [5] = assay: Antibacterial activity against Acinetobacter baumannii ATCC 19606 at 0.1 M by disk diffusion assay; type: functional, ATCC 19606 = CIP 70.34 = JCM 6841
Acinetobacter baumannii [6] = assay: Antibacterial activity against Acinetobacter baumannii ATCC 19606 at 0.01 M by disk diffusion assay; type: functional, ATCC 19606 = CIP 70.34 = JCM 6841
Acinetobacter baumannii [7] = assay: Antibacterial activity against Acinetobacter baumannii ATCC 19606; type: functional; details: ATCC 19606 = CIP 70.34 = JCM 6841
Acinetobacter baumannii [8] = assay: Potency index, ratio of chloramphenicol MIC to compound MIC for Acinetobacter baumannii ATCC 19606; type: functional, ATCC 19606 = CIP 70.34 = JCM 6841
[9] = ATCC 19606 = CIP 70.34 = JCM 6841

| SMILES | inhibition zone (IZ) (Bacillus subtilis) | inhibition zone (IZ) (Staphylococcus aureus [1]) | further results |
| --- | --- | --- | --- |
| O=C(O)c1ccc(-n2cc(/C=N/NC(=O)c3ccccc3O)c(-c3ccccc3)n2)cc1 | inactive | inactive |  |
| COC(=O)N/N=C/c1cn(-c2ccc(C(=O)O)cc2)nc1-c1ccccc1 | inactive | inactive |  |
| Cc1cc(NCc2cn(-c3ccc(C(=O)O)cc3)nc2-c2ccccc2)ccc1F | 16 mm | 15 mm |  |
| O=C(O)c1ccc(-n2cc(/C=N/NC(=O)c3cccnc3)c(-c3ccccc3)n2)cc1 | inactive | inactive |  |
| Cc1cc(NCc2cn(-c3ccc(C(=O)O)cc3)nc2-c2ccccc2)ccc1Br | 17 mm | 15 mm | MIC (Staphylococcus aureus [2]): 16 µg/mL (≈ 34.6 µM); CC50 [3]: 17.9 µg/mL (≈ 38.7 µM) |
| COc1ccc(C(=O)N/N=C/c2cn(-c3ccc(C(=O)O)cc3)nc2-c2ccccc2)cc1 | 11 mm | 8 mm |  |
| O=C(O)c1ccc(-n2cc(CNc3ccc(CCO)cc3)c(-c3ccccc3)n2)cc1 | 10 mm | 9 mm |  |
| Cc1ccc(NCc2cn(-c3ccc(C(=O)O)cc3)nc2-c2ccccc2)cc1Cl | 16 mm | 13 mm | MIC (Staphylococcus aureus [2]): 16 µg/mL (≈ 38.3 µM); CC50 [3]: 20 µg/mL (≈ 47.9 µM) |
| O=C(O)c1ccc(-n2cc(/C=N/NC(=O)c3ccccc3)c(-c3ccccc3)n2)cc1 | 8 mm | 8 mm |  |
| NC(=S)N/N=C/c1cn(-c2ccc(C(=O)O)cc2)nc1-c1ccccc1 | inactive | inactive |  |
| O=C(O)c1ccc(-n2cc(/C=N/Nc3ccc(Cl)cc3Cl)c(-c3ccccc3)n2)cc1 | 11 mm | 10 mm | inhibition zone (IZ) (Acinetobacter baumannii [4]; [9]): inactive; inhibition zone (IZ) (Escherichia coli): inactive |
| O=C(O)c1ccc(-n2cc(CNc3ccc(Cl)c(C(F)(F)F)c3)c(-c3ccccc3)n2)cc1 | 17 mm | 17 mm | MIC (Staphylococcus aureus [2]): 32 µg/mL (≈ 67.8 µM); CC50 [3]: > 32 µg/mL |
| O=C(O)c1ccc(-n2cc(/C=N/Nc3ccccc3F)c(-c3ccccc3)n2)cc1 | 17 mm | 13 mm | inhibition zone (IZ) (Acinetobacter baumannii [4]): 34 mm; inhibition zone (IZ) (Escherichia coli): inactive |
| NC(=O)N/N=C/c1cn(-c2ccc(C(=O)O)cc2)nc1-c1ccccc1 | inactive | inactive |  |
| O=C(O)c1ccc(-n2cc(CNc3ccc(F)c([N+](=O)[O-])c3)c(-c3ccccc3)n2)cc1 | 12 mm | 14 mm |  |
| O=C(O)c1ccc(-n2cc(/C=N/Nc3ccc(F)cc3)c(-c3ccccc3)n2)cc1 | 18 mm | 16 mm | inhibition zone (IZ) (Acinetobacter baumannii [5]): >85 mm; inhibition zone (IZ) (Acinetobacter baumannii [6]): 32 mm; inhibition zone (IZ) (Escherichia coli): 8 mm; MIC (Acinetobacter baumannii [7]): 8 µg/mL (≈ 20 µM); CC50 [3]: > 32 µg/mL |
| O=C(N[C@H](CO)[C@H](O)c1ccc([N+](=O)[O-])cc1)C(Cl)Cl [CHLORAMPHENICOL] | 36 mm | 25 - 36 mm | inhibition zone (IZ) (Acinetobacter baumannii [4]): 18 - 22 mm; inhibition zone (IZ) (Escherichia coli): 39 mm; MIC (Acinetobacter baumannii [7]): 16 µg/mL (≈ 49.5 µM) |
| O=C(O)c1ccc(-n2cc(CNc3cc(C(F)(F)F)cc(C(F)(F)F)c3)c(-c3ccccc3)n2)cc1 | 25 mm | 22 mm | MIC (Staphylococcus aureus [2]): 32 µg/mL (≈ 63.3 µM); CC50 [3]: > 32 µg/mL |
| O=C(O)c1ccc(-n2cc(/C=N/NC(=O)c3ccccc3F)c(-c3ccccc3)n2)cc1 | 11 mm | 10 mm |  |
| O=C(O)c1ccc(-n2cc(CNc3ccc(F)c(C(F)(F)F)c3)c(-c3ccccc3)n2)cc1 | 22 mm | 21 mm | MIC (Staphylococcus aureus [2]): 32 µg/mL (≈ 70.3 µM); CC50 [3]: > 32 µg/mL |
| O=C(O)c1ccc(-n2cc(CNc3ccc(Cl)c(Cl)c3)c(-c3ccccc3)n2)cc1 | 11 mm | 11 mm | MIC (Staphylococcus aureus [2]): 16 µg/mL (≈ 36.5 µM); CC50 [3]: 18 µg/mL (≈ 41.1 µM) |

| SMILES | inhibition zone (IZ) (Bacillus subtilis) | inhibition zone (IZ) (Staphylococcus aureus [1]) | further results |
| --- | --- | --- | --- |
| O=C(O)c1ccc(-n2cc(CNc3cccc(C(=O)O)c3)c(-c3ccccc3)n2)cc1 | inactive | inactive |  |
| O=C(O)c1ccc(N/N=C/c2cn(-c3ccc(C(=O)O)cc3)nc2-c2ccccc2)cc1 | inactive | inactive | inhibition zone (IZ) (Acinetobacter baumannii [4]; [9]): inactive; inhibition zone (IZ) (Escherichia coli): inactive |
| O=C(O)c1ccc(-n2cc(CNc3cc(C(=O)O)cc(C(=O)O)c3)c(-c3ccccc3)n2)cc1 | 9 mm | 10 mm |  |
| N/N=C/c1cn(-c2ccc(C(=O)O)cc2)nc1-c1ccccc1 | 7 mm | 7 mm | inhibition zone (IZ) (Acinetobacter baumannii [4]; [9]): inactive; inhibition zone (IZ) (Escherichia coli): inactive |
| O=C(O)c1ccc(-n2cc(/C=N/Nc3ccc(Br)cc3)c(-c3ccccc3)n2)cc1 | 10 mm | 10 mm | inhibition zone (IZ) (Acinetobacter baumannii [4]): 42 mm; inhibition zone (IZ) (Escherichia coli): inactive; MIC (Acinetobacter baumannii [7]): 8 µg/mL (≈ 17.3 µM); CC50 [3]: > 32 µg/mL |
| O=C(O)c1ccc(-n2cc(CNc3ccc(F)c(Cl)c3)c(-c3ccccc3)n2)cc1 | 11 mm | 11 mm |  |
| O=C(O)c1ccc(-n2cc(/C=N/NC(=O)c3ccc(O)cc3)c(-c3ccccc3)n2)cc1 | inactive | inactive |  |
| O=C(O)c1ccc(-n2cc(/C=N/NS(=O)(=O)c3ccccc3)c(-c3ccccc3)n2)cc1 | 10 mm | 9 mm |  |
| O=C(O)c1ccc(-n2cc(CNc3ccc(Br)c(C(F)(F)F)c3)c(-c3ccccc3)n2)cc1 | 12 mm | 15 mm | MIC (Staphylococcus aureus [2]): 32 µg/mL (≈ 62 µM); CC50 [3]: > 32 µg/mL |
| CN1CCN(/N=C/c2cn(-c3ccc(C(=O)O)cc3)nc2-c2ccccc2)CC1 | inactive | inactive | inhibition zone (IZ) (Acinetobacter baumannii [4]; [9]): inactive; inhibition zone (IZ) (Escherichia coli): inactive |
| Cc1ccccc1NCc1cn(-c2ccc(C(=O)O)cc2)nc1-c1ccccc1 | 16 mm | 14 mm |  |
| O=C(O)c1ccc(-n2cc(/C=N/NC(=O)c3ccc(F)cc3)c(-c3ccccc3)n2)cc1 | inactive | inactive |  |
| O=C(O)c1cn(C2CC2)c2cc(N3CCNCC3)c(F)cc2c1=O [CIPROFLOXACIN] | 44 mm | 36 mm | inhibition zone (IZ) (Acinetobacter baumannii [4]): 32 - 37 mm; inhibition zone (IZ) (Escherichia coli): 39 mm; MIC (Acinetobacter baumannii [7]): 1.56 µg/mL (≈ 4.71 µM) |
| O=C(O)c1ccc(-n2cc(/C=N/NC(=O)c3ccncc3)c(-c3ccccc3)n2)cc1 | inactive | inactive |  |
| O=C(O)c1ccc(-n2cc(/C=N/Nc3ccccc3)c(-c3ccccc3)n2)cc1 | 11 mm | 10 mm | inhibition zone (IZ) (Acinetobacter baumannii [4]): 28 mm; inhibition zone (IZ) (Escherichia coli): inactive |
| O=C(O)c1ccc(-n2cc(/C=N/Nc3ccc(Cl)cc3)c(-c3ccccc3)n2)cc1 | 13 mm | 16 mm | inhibition zone (IZ) (Acinetobacter baumannii [4]): 54 mm; inhibition zone (IZ) (Escherichia coli): 8 mm; MIC (Acinetobacter baumannii [7]): 4 µg/mL (≈ 9.6 µM); CC50 [3]: > 32 µg/mL; Ratio (Acinetobacter baumannii [8]): 4 |
| Cc1ccc(S(=O)(=O)N/N=C/c2cn(-c3ccc(C(=O)O)cc3)nc2-c2ccccc2)cc1 | 11 mm | 12 mm |  |
| O=C(O)c1ccc(-n2cc(/C=N/Nc3ccc([N+](=O)[O-])cc3)c(-c3ccccc3)n2)cc1 | inactive | inactive | inhibition zone (IZ) (Acinetobacter baumannii [4]): 22 mm; inhibition zone (IZ) (Escherichia coli): inactive |
| O=C(O)c1ccc(-n2cc(/C=N/NC(=O)c3ccc4ccccc4c3O)c(-c3ccccc3)n2)cc1 | inactive | inactive |  |
| CC(=O)N/N=C/c1cn(-c2ccc(C(=O)O)cc2)nc1-c1ccccc1 | inactive | inactive |  |
